In patent EP1158297A1, “METHOD FOR SCREENING COMPOUND HAVING AFFINITY FOR VITAMIN D RECEPTOR” (CHUGAI SEIYAKU KABUSHIKI KAISHA, priority 1999, dated 2000):
Read-outs that look alike come from different tables or passages of the source.

Assays:
VDRE = assay: Reporter gene (CAT) assay using reporter gene vector having VDRE; format: cell-based, African green monkey; details: for VDRE-mediated transcription promoting activity: relative value with the EC50 value of 1α,25-dihydroxyvitamin D3 as 100%, COS-1 cells with rat vitamin D receptor expression vector, CAT ELISA, lower = more potent
Excerpt: The reporter gene vector having VDRE used was a product produced by integrating VDRE ([…]) of a mouse osteopontin gene into a cassette vector (pGCAT; Kato S. et al., Cell (1992)68, 731-742) containing a promoter region (-109/+10) of rabbit β-globin and CAT (chloramphenicol acetyltransferase). As an expression vector for β-galactosidase used for correction of transfection efficiency, pCH110 (Pharmacia) was used. As a carrier vector, BSM (BluescribeM13+: […]) was used.
The rat vitamin D receptor expression vector used was a product obtained by integrating cDNA of a rat vitamin D receptor into pSG5 ([…]).
COS-1 cells were cultured in a DMEM medium containing 5% FBS and 10 nM insulin, and cultures were subcultured at intervals of 3 or 4 days at a density of 1,500 to 3,000 cells/cm^2. The conditions for culture were 37°C and 5% CO2. For cultivation of COS-1 cells during reporter gene assay, a phenol red-free DMEM medium containing 5% DCC-FBS (charcoal-treated FBS) and 10 nM insulin was used. COS-1 cells were seeded into a 6-well plate at a density of 5 to 8 x 10^4 cells/1.75 mL/well. […]
After overnight culture, each well was washed with 1 mL/well of a phenol red-free DMEM medium. […] Then, the amount of CAT expressed was measured using a CAT ELISA kit (Boehringer Mannheim).
The cell lysate (10 µL), 175 µL of Buffer Z (60 mM Na2HPO4, 40 mM NaH2PO4, 10 mM KCl, 1 mM MgSO4) and 35 µL of 4 mg/mL ONPG (o-nitrophenyl-β-D-galactopyranoside; SIGMA) were mixed in a 96-well plate (Nunc-Immuno plate Maxi Sorp Surface) and the system was incubated for 1 hour at 37°C. Then, 100 µL of 1M Na2CO3 was added to terminate the reaction and A415 was measured with a plate reader. Based on the measured values, the number of units of the cell lysate was calculated from the following equation and the cell lysate in an amount corresponding to 15 units was used in CAT ELISA measurement. […]
Based on the measured values of CAT ELISA, the EC50 value of each derivative was calculated to evaluate the VDRE-mediated action.

osteoporosis model rats [1] = format: in vivo; details: OVX rats, third lumbar vertebra
Procedure: 7- to 9-week-old W-I female rats (Imamichi Institute for Animal Reproduction) were subject to ovariectomy. […] After the last dose, 24-hour urine was sampled and the blood was taken under ether anesthesia. After the animal was euthanized, the lumbar vertebrae were removed.
The lumbar bone mineral density was measured at the third lumbar vertebra site using a dual X-ray bone mineral content measuring device (DCS-600, ALOKA). The blood and urinary calcium concentrations and the urinary creatinine concentration were measured with an automatic analyzer (Model 7170, Hitachi).
Statistical processing was carried out using Statistic Analysis System (SAS) software. A comparison between a sham operation (sham) group and an ovariectomy (OVX) group was made by an unpaired t-test. A comparison between the OVX group and the drug treatment group, or a comparison between the sham group and the drug treatment group was made by Dunnett's multiple test. A P-value less then 5% was considered as a significant difference.

osteoporosis model rats [2] = assay: Bone mass decrease in osteoporosis model rats, oral treatment (Example 3); format: in vivo
Procedure: 8-week-old W-I female rats (Imamichi Institute for Animal Reproduction) were subjected to overiectomy. From the following day onward, 1α-hydroxyvitamin D3 was orally administered 5 times weekly in a daily dose of 0.1 µg/kg, or Compound No. 22 was orally administered daily for 5 weeks in a daily dose of 3 µg/kg given as a single dose or two divided doses. After the last dose, 24-hour urine was sampled and a blood sample was taken under ether anesthesia. After the animal was euthanized, the lumbar vertebrae were removed. The lumbar bone mineral density was measured at the third lumbar vertebra site using a dual X-ray bone mineral content measuring device (DCS-600EX, ALOKA). The blood and urinary calcium concentrations and the urinary creatinine concentration were measured with an automatic analyzer (Model 7170, Hitachi).
Statistical processing was carried out using basic software for statistical analysis (SAS). A comparison between the sham group and the OVX group, a comparison between the OVX group and the 1α-hydroxyvitamin D3 treatment group, or a comparison between the sham group and the 1α-hydroxyvitamin D3 treatment group was made by an unpaired t-test, with the p value less than 5% representing a significant difference. A comparison between the OVX group and the Compound No. 22 group, or a comparison between the sham group and the Compound No. 22 group was made by Dunnett's multiple test, with the p value less than 5% showing a significant difference.

NF-κB family = assay: Reporter gene (luciferase) assay using reporter gene vector having NF-κB binding sequence; format: cell-based, human; details: IC37.5 value expressed as percentage of the value of 1α,25-dihydroxyvitamin D3 (100%); Jurkat cells with rat vitamin D receptor expression vector, PMA and ionomycin stimulation; lower = more potent
Excerpt: (§1) A basic vector was constructed by inserting a promoter region (-72/+47) of a human IL-2 gene into a cassette vector of luciferase (pXP2; described in S.K. Nordeen, Biotechniques, Vol. 6, pp. 454-456, (1988)). For a reporter gene vector having an AP-1 binding sequence, five AP-1 binding sequences ([…]) of a human collagenase (MMP-1) gene were inserted tandem into the basic vector. For a reporter gene vector having an NF-κB binding sequence, four NF-κB binding sequences ([…]) of a human immunoglobulin light chain κ gene were inserted tandem into the basic vector. The resulting products were used as the respective reporter gene vectors.
(§2) The rat vitamin D receptor expression vector used was a product obtained by inserting cDNA of a rat vitamin D receptor (described in James K. Burmester et al., Proc. Natl. Acad. Sci. USA, Vol. 85, pp. 9499-9502, […]) into the pSG5 ([…]).
(§3) Jurkat cells were cultured in RPMI-1640 (GIBCO BRL) containing 10% FBS and antibiotics. The culture was started at a density of 5 x 10^4 cells/mL and the cells were subcultured at intervals of 3 or 4 days to a density of 5 x 10^4 cells/mL. The conditions for culture were 37°C and 5% CO2. […] Both of the solutions were mixed and then allowed to stand for 30 minute at room temperature.

vitamin D receptor = biological target: T1, vitamin D receptor (Homo sapiens, UniProt P11473); assay: Affinity for vitamin D receptor; format: binding; details: relative to that of 1α,25-dihydroxyvitamin D3
T1 sequence (P11473 1-427): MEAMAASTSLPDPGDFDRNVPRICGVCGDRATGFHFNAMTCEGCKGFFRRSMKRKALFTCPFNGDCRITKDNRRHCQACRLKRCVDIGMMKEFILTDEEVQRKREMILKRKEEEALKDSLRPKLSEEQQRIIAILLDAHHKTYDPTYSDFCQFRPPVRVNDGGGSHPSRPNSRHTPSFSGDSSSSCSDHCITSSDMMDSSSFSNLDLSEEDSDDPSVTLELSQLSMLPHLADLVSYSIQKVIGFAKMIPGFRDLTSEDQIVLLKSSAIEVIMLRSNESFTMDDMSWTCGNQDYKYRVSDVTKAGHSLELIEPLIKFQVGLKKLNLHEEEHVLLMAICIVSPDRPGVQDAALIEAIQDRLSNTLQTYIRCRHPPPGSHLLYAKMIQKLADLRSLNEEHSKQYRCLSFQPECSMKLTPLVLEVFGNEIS

AP-1 complex = assay: Reporter gene (luciferase) assay using reporter gene vector having AP-1 binding sequence; format: cell-based, human; details: IC37.5 value expressed as percentage of the value of 1α,25-dihydroxyvitamin D3 (100%); Jurkat cells with rat vitamin D receptor expression vector, PMA and ionomycin stimulation; lower = more potent
Excerpt: as §1, §2, §3

osteoporosis model rats [3] = assay: Bone strength decrease and bone resorption in osteoporosis model rats, oral treatment (Example 4); format: in vivo
Procedure: 13-month-old W-I female rats (Imamichi Institute for Animal Reproduction) were subject to overiectomy. From the following day onward, Compound No. 22 was administered p.o. daily for 3 months in a daily dose of 1.5 to 6 µg/kg given as two divided doses. After the last dose, 24-hour urine was sampled and a blood sample was taken under ether anesthesia. After the animal was euthanized, the lumbar vertebrae were removed.
The lumbar bone mineral density was measured at the second to fourth lumbar vertebra site using a dual X-ray bone mineral content measuring device (DCS-600EX, ALOKA). The bone strength of the fifth lumbar vertebra was measured with Autograph AG-2000E (Shimadzu Corp.). The blood calcium concentration and the urinary creatinine concentration were measured with an automatic analyzer (Model 7170, Hitachi). The urinary deoxypyridinoline was measured with Osteolinks DPD.
Statistical Analysis was carried out using Statistic Analysis System (SAS) software. A comparison between the sham group and the OVX group was made by an unpaired t-test. A comparison between the OVX group and the Compound No. 22 treatment group, or a comparison between the sham group and the Compound No. 22 treatment group was made by Dunnett's multiple test, with the p value less than 5% showing a significant difference.

[4] = OVX rats, 0.1 µg/kg orally 5 times weekly, in comparison with the sham group and the OVX group

blood Ca level (osteoporosis model rats [2]; [4]) | urinary Ca excretion (osteoporosis model rats [2]; [4]) | Inhibitory activity against NF-κB family (NF-κB family) [%] | affinity for a vitamin D receptor (vitamin D receptor) [times] | Inhibitory activity against AP-1 complex (AP-1 complex) [%] | serum Ca concentration (osteoporosis model rats [3]; OVX rats, orally 0.75, 1.5 or 3 µg/kg twice daily for 3 months) | Structure (SMILES) | VDRE-mediated transcription promoting activity (VDRE) [%] | decrease in bone mineral density (osteoporosis model rats [1]; 0.04 µg/kg subcutaneously 5 times weekly for 6 weeks) | decrease in bone mineral density by OVX (osteoporosis model rats [2]; 0.1 µg/kg orally 5 times weekly, third lumbar vertebra) | effect of suppressing the decrease in bone mineral density (osteoporosis model rats [2]; OVX rats, orally 3 µg/kg once daily or 1.5 µg/kg twice daily for 5 weeks, third lumbar vertebra) | VDRE-mediated transcription promoting activity relative to that of 1α,25-dihydroxyvitamin D3 (VDRE; fraction of the activity of 1α,25-dihydroxyvitamin D3) | decrease in bone mineral density (osteoporosis model rats [1]; 0.1 µg/kg subcutaneously 5 times weekly for 6 weeks) | decrease in bone mineral density (osteoporosis model rats [1]; doses of 0.01 to 0.1 µg/kg subcutaneously 5 times weekly for 6 weeks) | urinary Dpyr excretion increased by OVX (osteoporosis model rats [3]; oral treatment twice daily for 3 months, urinary deoxypyridinoline, bone resorption marker) | decrease in the bone strength by OVX (osteoporosis model rats [3]; orally 0.75, 1.5 or 3 µg/kg twice daily for 3 months, fifth lumbar vertebra) | decrease in the bone mineral density by OVX (osteoporosis model rats [3]; orally 0.75, 1.5 or 3 µg/kg twice daily for 3 months, second to fourth lumbar vertebra)
 |  |  |  |  |  | C=C1/C(=C\C=C2/CCC[C@]3(C)[C@@H]([C@H](C)CCCC(C)(C)O)CC[C@@H]23)C[C@@H](O)C[C@@H]1O [1α,25-dihydroxyvitamin D3, reference compound] | 100.00 | significantly suppressed |  |  |  |  |  |  |  | 
significantly increased | significantly increased |  |  |  |  | C=C1/C(=C\C=C2/CCC[C@]3(C)[C@@H]([C@H](C)CCCC(C)C)CC[C@@H]23)C[C@@H](O)C[C@@H]1O [1α-hydroxyvitamin D3] |  |  | significantly suppressed |  |  |  |  |  |  | 
 |  | 5.19 | 0.8 | 3.74 | without increases | C=C1/C(=C\C=C2/CCC[C@]3(C)C([C@@H](C)SCC(O)(CC)CC)=CC[C@@H]23)C[C@@H](O)C[C@@H]1O [Compound 22, 1α,3β-dihydroxy-20(R)-(2-ethyl-2-hydroxybutylthio)-9,10-secopregna-5,7,10(19),16-tetraene] | 1032.20 |  |  | comparable to or higher than that of 1α-hydroxyvitamin D3 | about 1/10 | significant suppressing effect | dose-dependent effect of suppressing the decrease in bone mineral density | significantly decreased | significantly suppressed | significantly suppressed
